Assay results published in ChEMBL document CHEMBL1201862, “PubChem BioAssay data set” (2004).
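The compound was tested at five concentrations on cells cultured in 96-well plates, with a 48-hour exposure period. Abbreviation: GI50, concentration required for 50% inhibition of growth.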 Calls of active or inactive are those of the source. No stated cut-off is given here; in the data, active = GI50 up to about 1.1 µM and inactive = higher.

How the values were obtained:
Test in all cases: NCI tumour cell line growth inhibition, 48 h
LXFL 529 = test system: LXFL 529
HOP-18 = test system: HOP-18
M19-MEL = test system: M19-MEL
XF498 = test system: XF498
SNB-78 = test system: SNB-78
KM-20L2 = test system: KM-20L2
DMS-114 = test system: DMS-114
RXF 631 = test system: RXF 631
DLD-1 = test system: DLD-1

Measured: GI50

CCOc1ccc(OP2(=O)NC(=O)C=C(C)N2)cc1 (stereo not drawn)
inactive: LXFL 529 > 100 µM | HOP-18 > 100 µM | M19-MEL > 100 µM | XF498 > 100 µM | SNB-78 > 100 µM | KM-20L2 > 100 µM | DMS-114 > 100 µM | RXF 631 > 100 µM | DLD-1 > 100 µM

CCc1cccc(C(C)CC)c1NC(=O)CC1C(=O)Nc2ccccc2S1(=O)=O (stereo not drawn)
inactive: LXFL 529 11.2 µM | M19-MEL 26.9 µM | XF498 > 100 µM | SNB-78 14.2 µM | KM-20L2 25.2 µM | DMS-114 13.5 µM | DLD-1 13.6 µM

O=C(c1ccncc1)n1nc(-c2ccccc2)c(/N=N/c2ccc([N+](=O)[O-])cc2)c1-c1ccccc1
inactive: LXFL 529 13.1 µM | M19-MEL > 100 µM | XF498 57.8 µM | SNB-78 14.8 µM | DMS-114 24.4 µM | DLD-1 > 100 µM

O=C1CCC(Cl)=CC2CCCN12 (stereo not drawn)
inactive: LXFL 529 > 100 µM | M19-MEL > 100 µM | SNB-78 > 100 µM | KM-20L2 > 100 µM | DMS-114 > 100 µM | DLD-1 > 100 µM

COc1ccc(-c2c(C3=NCCCN3)nnn2-c2ccccc2)cc1
inactive: LXFL 529 > 100 µM | HOP-18 > 100 µM | M19-MEL > 100 µM | XF498 > 100 µM | SNB-78 > 100 µM | KM-20L2 > 100 µM | DMS-114 > 100 µM | DLD-1 > 100 µM

COc1ccc2c([nH]c3cc(O)c(C)cc32)c1C=O
inactive: LXFL 529 > 25 µM | M19-MEL > 25 µM | XF498 > 25 µM | SNB-78 > 25 µM | KM-20L2 > 25 µM | DMS-114 > 25 µM | DLD-1 > 25 µM

CC1C=CC(C(N)C(=O)O)O1 (stereo not drawn)
inactive: LXFL 529 > 100 µM | M19-MEL > 100 µM | XF498 > 100 µM | SNB-78 > 100 µM | KM-20L2 > 100 µM | DMS-114 > 100 µM | DLD-1 > 100 µM

C[Si](C)(C)/C=C/CN1C(=O)CCC1O (stereo not drawn)
inactive: LXFL 529 > 100 µM | HOP-18 > 100 µM | M19-MEL > 100 µM | XF498 > 100 µM | SNB-78 > 100 µM | KM-20L2 > 100 µM | DMS-114 > 100 µM | DLD-1 > 100 µM

Nn1c(S)nnc1N/N=C1/C(=O)Nc2c(Cl)cc(Cl)cc21
inactive: LXFL 529 59.7 µM | HOP-18 > 100 µM | M19-MEL > 100 µM | SNB-78 > 100 µM | KM-20L2 81.8 µM | DMS-114 > 100 µM | DLD-1 > 100 µM

Nc1ccc2nc(Nc3ccc(Cl)c(Cl)c3)cnc2c1
inactive: M19-MEL 18.2 µM | SNB-78 24.6 µM | DMS-114 10 µM | DLD-1 34.7 µM

O=c1[nH]c(=O)n(C2CC(O)C(CS)O2)cc1F (stereo not drawn)
inactive: LXFL 529 > 10 µM | HOP-18 > 100 µM | M19-MEL 77.6 µM | XF498 > 100 µM | SNB-78 > 100 µM | KM-20L2 78.9 µM | DMS-114 > 100 µM | DLD-1 > 100 µM

C=CCNC(=S)OCCCCCCCCCC
inactive: LXFL 529 14.9 µM | HOP-18 22.3 µM | M19-MEL 17.6 µM | XF498 16 µM | SNB-78 19.5 µM | KM-20L2 18.6 µM | DMS-114 17 µM | DLD-1 16.4 µM

CC1OC(n2ccc(=O)[nH]c2=O)C=C(OC(=O)c2ccccc2)C1=O (stereo not drawn)
inactive: HOP-18 38.4 µM | M19-MEL > 100 µM | XF498 21.2 µM | SNB-78 > 100 µM | KM-20L2 73.5 µM | DLD-1 > 100 µM

CC(=O)OCC1OC(N=[N+]=[N-])C(OC(C)=O)C(OC(C)=O)C1OC1OC(COC(C)=O)C(OC(C)=O)C(OC(C)=O)C1OC(C)=O (stereo not drawn)
inactive: LXFL 529 > 100 µM | M19-MEL > 100 µM | XF498 > 100 µM | SNB-78 71.6 µM | KM-20L2 > 100 µM | DMS-114 > 100 µM | RXF 631 > 100 µM

CN1CCc2c1nc(-c1ccccc1)c1c2N(C)CC1
inactive: LXFL 529 52.2 µM | HOP-18 3.82 µM | M19-MEL > 100 µM | SNB-78 > 100 µM | KM-20L2 52.8 µM | DLD-1 45.3 µM

CCSc1nc(COC(=O)NC)c(COC(=O)NC)n1C
inactive: LXFL 529 > 37.2 µM | HOP-18 > 100 µM | M19-MEL > 63.5 µM | SNB-78 > 70.1 µM | KM-20L2 > 100 µM | DMS-114 46.6 µM | RXF 631 > 100 µM | DLD-1 > 92.3 µM

CCCCCCCCCCCCCCCCCCCCCCC(=O)N[C@H]1CCc2cc(OC)c(OC)c(OC)c2-c2ccc(SC)c(=O)cc21
inactive: LXFL 529 41.9 µM | M19-MEL 50 µM | XF498 20.8 µM | SNB-78 41.9 µM | KM-20L2 18.7 µM | RXF 631 14.1 µM
